Experimental data reported in US9650395B2, “Antibacterial compounds and methods for use” (PTC Therapeutics, Inc., priority 2011, dated 2017).
Values after ≈ are worked out from the molar mass of the structure shown. Like-named read-outs stand apart in the source and are kept apart here.

What was measured:
[1] = test system: Pseudomonas aeruginosa (P. aeruginosa) 27853; test: Antibacterial activity, MIC, P. aeruginosa 27853; format: cell-based; details: Pseudomonas aeruginosa, P. aeruginosa 27853; read-out: MIC 27853
Text: (§1) The antibacterial activity from a microbroth dilution method may be presented as the minimum inhibitory concentration (MIC in […]). The MIC value is the lowest concentration of a drug which prevents macroscopically visible bacterial growth under test conditions.
Antibacterial activity of test compounds against the Gram-negative bacterium Pseudomonas aeruginosa (P. aeruginosa) 27853 is shown in Table 5.

[2] = test system: Gram-positive Staphylococcus aureus (S. aureus) 29213; test: Antibacterial activity, microbroth dilution MIC, S. aureus 29213; format: cell-based; details: Staphylococcus aureus; S. aureus 29213, microbroth dilution; read-out: MIC, 29213
[3] = test system: Acinetobacter baumannii (A. baumannii) BAA747; test: Antibacterial activity, MIC, A. baumannii BAA747; format: cell-based; details: Acinetobacter baumannii; A. baumannii BAA747; read-out: MIC BAA747
[4] = test system: control Gram-negative E. coli 25922 strain; test: Antibacterial activity, microbroth dilution MIC, E. coli 25922; format: cell-based, Escherichia coli; details: Escherichia coli; E. coli 25922, microbroth dilution; read-out: MIC, 25922
[5] = test system: Klebsiella pneumoniae (K. pneumoniae) 35657; test: Antibacterial activity, MIC, K. pneumoniae 35657; format: cell-based; details: Klebsiella pneumoniae
[6] = test system: quinolone resistant E. coli LZ3111; test: Antibacterial activity, MIC, quinolone resistant E. coli LZ3111; format: cell-based, Escherichia coli; details: Escherichia coli, read-out: MIC, LZ3111
Text: as §1
Mutations in these regions are known to confer a high level resistance to the quinolone class of antibiotics.

[7] = test system: resistant A. baumannii MXX2240 (MDR clinical isolate); test: Antibacterial activity, MIC, resistant A. baumannii MXX2240; format: cell-based, Acinetobacter baumannii; details: Acinetobacter baumannii, read-out: MIC MMX2240
[8] = test system: resistant K. pneumoniae MXX1232 (MDR clinical isolate); test: Antibacterial activity, MIC, resistant K. pneumoniae MXX1232; format: cell-based, Klebsiella pneumoniae; details: Klebsiella pneumoniae, read-out: MIC MMX1232
[9] = test system: super sensitive Gram-negative Escherichia coli (E. coli) BAS849; test: Antibacterial activity, microbroth dilution MIC, E. coli BAS849; format: cell-based; details: Escherichia coli; E. coli BAS849, microbroth dilution; read-out: MIC, BAS849
[10] = resistant A. baumannii MMX2240, MDR clinical isolate
[11] = resistant K. pneumoniae MMX1232, MDR clinical isolate

Row | Compound | MIC [1] | MIC [2] | MIC [3] | MIC [4] | MIC [5] | MIC [6] | MIC [7] | MIC [8] | MIC [9] | MIC [7, 10] | MIC [8, 11]
1 | CCc1c(-c2ccc(C3=CCN(CC)CC3)cc2)[nH]c(=O)c(C(=O)O)c1O [Cpd 341, 5-ethyl-6-(4-(1-ethyl-1,2,3,6-tetrahydropyridin-4-yl)phenyl)-4-hydroxy-2-oxo-1,2-dihydropyridine-3-carboxylic acid] | 12.5 to 150 µg/mL (≈ 33.9 to 407 µM) | 12.5 to 150 µg/mL (≈ 33.9 to 407 µM) | 12.5 to 150 µg/mL (≈ 33.9 to 407 µM) | 12.5 to 150 µg/mL (≈ 33.9 to 407 µM) | 3.5 to 12.5 µg/mL (≈ 9.5 to 33.9 µM) | 3.5 to 12.5 µg/mL (≈ 9.5 to 33.9 µM) | 12.5 to 150 µg/mL (≈ 33.9 to 407 µM) | 12.5 to 150 µg/mL (≈ 33.9 to 407 µM) | 1 to 3.5 µg/mL (≈ 2.71 to 9.5 µM) | – | –
2 | CCc1c(-c2ccc(N3CCC(O)(CC)C3)cc2)[nH]c(=O)c(C(=O)O)c1O (stereo not drawn) [Cpd 288, 5-ethyl-6-[4-(3-ethyl-3-hydroxypyrrolidin-1-yl)phenyl]-4-hydroxy-2-oxo-1,2-dihydropyridine-3-carboxylic acid] | 3.5 to 12.5 µg/mL (≈ 9.4 to 33.6 µM) | 1 to 3.5 µg/mL (≈ 2.69 to 9.4 µM) | 1 to 3.5 µg/mL (≈ 2.69 to 9.4 µM) | 1 to 3.5 µg/mL (≈ 2.69 to 9.4 µM) | 3.5 to 12.5 µg/mL (≈ 9.4 to 33.6 µM) | 3.5 to 12.5 µg/mL (≈ 9.4 to 33.6 µM) | – | – | < 1 µg/mL | 1 to 3.5 µg/mL (≈ 2.69 to 9.4 µM) | 12.5 to 150 µg/mL (≈ 33.6 to 403 µM)
3 | CN(C)c1ccc(-c2[nH]c(=O)c(C(=O)O)c(O)c2CC=O)cc1 [Cpd 327, 6-(4-(dimethylamino)phenyl)-4-hydroxy-2-oxo-5-(2-oxoethyl)-1,2-dihydropyridine-3-carboxylic acid] | 12.5 to 150 µg/mL (≈ 39.5 to 474 µM) | 12.5 to 150 µg/mL (≈ 39.5 to 474 µM) | 12.5 to 150 µg/mL (≈ 39.5 to 474 µM) | 12.5 to 150 µg/mL (≈ 39.5 to 474 µM) | 12.5 to 150 µg/mL (≈ 39.5 to 474 µM) | 12.5 to 150 µg/mL (≈ 39.5 to 474 µM) | – | – | 3.5 to 12.5 µg/mL (≈ 11.1 to 39.5 µM) | 12.5 to 150 µg/mL (≈ 39.5 to 474 µM) | 12.5 to 150 µg/mL (≈ 39.5 to 474 µM)
4 | CCc1c(-c2ccc(N3CC4(CCN(C)CC4)C3)cc2)[nH]c(=O)c(C(=O)O)c1O [Cpd 319, 5-ethyl-4-hydroxy-6-(4-(7-methyl-2,7-diazaspiro[3.5]nonan-2-yl)phenyl)-2-oxo-1,2-dihydropyridine-3-carboxylic acid] | 12.5 to 150 µg/mL (≈ 31.4 to 377 µM) | 12.5 to 150 µg/mL (≈ 31.4 to 377 µM) | 12.5 to 150 µg/mL (≈ 31.4 to 377 µM) | 3.5 to 12.5 µg/mL (≈ 8.81 to 31.4 µM) | 3.5 to 12.5 µg/mL (≈ 8.81 to 31.4 µM) | 12.5 to 150 µg/mL (≈ 31.4 to 377 µM) | – | – | < 1 µg/mL | 12.5 to 150 µg/mL (≈ 31.4 to 377 µM) | 12.5 to 150 µg/mL (≈ 31.4 to 377 µM)
5 | CCc1cc(C(=O)O)c(=O)[nH]c1-c1ccc(N2CCC(NC3CC3)C2)cc1 (stereo not drawn) [Cpd 173, 6-{4-[3-(cyclopropylamino)pyrrolidin-1-yl]phenyl}-5-ethyl-2-oxo-1,2-dihydropyridine-3-carboxylic acid] | 12.5 to 150 µg/mL (≈ 34 to 408 µM) | 12.5 to 150 µg/mL (≈ 34 to 408 µM) | 3.5 to 12.5 µg/mL (≈ 9.53 to 34 µM) | 1 to 3.5 µg/mL (≈ 2.72 to 9.53 µM) | 1 to 3.5 µg/mL (≈ 2.72 to 9.53 µM) | 12.5 to 150 µg/mL (≈ 34 to 408 µM) | – | – | < 1 µg/mL | 12.5 to 150 µg/mL (≈ 34 to 408 µM) | 12.5 to 150 µg/mL (≈ 34 to 408 µM)
6 | Cc1c(-c2ccc(N3CCCC3)cn2)[nH]c(=O)c(C(=O)O)c1O [Cpd 315, 4-hydroxy-5-methyl-2-oxo-6-(5-(pyrrolidin-1-yl)pyridin-2-yl)-1,2-dihydropyridine-3-carboxylic acid] | 12.5 to 150 µg/mL (≈ 39.6 to 476 µM) | 12.5 to 150 µg/mL (≈ 39.6 to 476 µM) | 12.5 to 150 µg/mL (≈ 39.6 to 476 µM) | 12.5 to 150 µg/mL (≈ 39.6 to 476 µM) | 12.5 to 150 µg/mL (≈ 39.6 to 476 µM) | 12.5 to 150 µg/mL (≈ 39.6 to 476 µM) | – | – | 1 to 3.5 µg/mL (≈ 3.17 to 11.1 µM) | 12.5 to 150 µg/mL (≈ 39.6 to 476 µM) | 12.5 to 150 µg/mL (≈ 39.6 to 476 µM)
